In patent US20220289727A1, “ENZYME INHIBITORS” (KALVISTA PHARMACEUTICALS LIMITED, priority 2019, published 2022):

biological target: T1, Human Factor XIIa (Homo sapiens, UniProt P00748); assay: Determination of FXIIa inhibitory activity in vitro (fluorogenic substrate H-DPro-Phe-Arg-AFC); type: biochemical; conditions: 25° C., residual enzyme activity (initial rate)
T1 construct: Human Factor XIIa (Enzyme Research Laboratories) was incubated; purchased Enzyme Research Laboratories
T1 sequence (P00748 373-615 limits assumed): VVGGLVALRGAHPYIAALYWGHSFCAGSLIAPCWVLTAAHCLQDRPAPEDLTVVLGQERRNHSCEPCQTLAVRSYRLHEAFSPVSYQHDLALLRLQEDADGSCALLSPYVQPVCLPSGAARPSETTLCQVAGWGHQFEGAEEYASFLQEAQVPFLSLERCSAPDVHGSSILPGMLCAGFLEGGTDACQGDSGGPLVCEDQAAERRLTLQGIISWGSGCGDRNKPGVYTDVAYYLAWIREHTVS
T1 sequence (P00748 20-372 partner limits assumed): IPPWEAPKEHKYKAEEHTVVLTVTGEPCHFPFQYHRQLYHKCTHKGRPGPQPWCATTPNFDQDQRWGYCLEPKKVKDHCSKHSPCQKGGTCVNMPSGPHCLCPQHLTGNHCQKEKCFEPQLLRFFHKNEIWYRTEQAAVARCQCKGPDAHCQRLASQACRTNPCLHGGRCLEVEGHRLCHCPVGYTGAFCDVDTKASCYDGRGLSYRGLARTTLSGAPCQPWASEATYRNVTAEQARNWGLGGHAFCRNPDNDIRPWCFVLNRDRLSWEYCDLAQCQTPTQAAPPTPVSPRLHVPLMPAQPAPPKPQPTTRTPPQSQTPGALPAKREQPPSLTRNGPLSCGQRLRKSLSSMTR

Row | SMILES | IC50 [µM]
1 | CN(C)Cc1sc(C(=O)NCc2ccc3c(N)nccc3c2)cc1Cl [Example 2.01] | 10 to 40
2 | Nc1nccc2cc(CNC(=O)c3cc(Cl)c(CNCc4ccccc4)s3)ccc12 [Example 2.02] | 10 to 40
3 | Nc1nccc2cc(CNC(=O)c3cc(Cl)c(CNc4ccccc4)s3)ccc12 [Example 2.03] | 10 to 40
4 | Nc1nccc2cc(CNC(=O)c3cc(Cl)c(CNCCN4CCCCC4)s3)ccc12 [Example 2.04] | 3 to 10
5 | COc1ccc(CNCc2sc(C(=O)NCc3ccc4c(N)nccc4c3)cc2Cl)cc1 [Example 2.05] | 10 to 40
6 | COc1cccc(CNCc2sc(C(=O)NCc3ccc4c(N)nccc4c3)cc2Cl)c1 [Example 2.06] | 10 to 40
7 | COc1ccccc1CNCc1sc(C(=O)NCc2ccc3c(N)nccc3c2)cc1Cl [Example 2.07] | 10 to 40
8 | CN(C)c1ccccc1CNCc1sc(C(=O)NCc2ccc3c(N)nccc3c2)cc1Cl [Example 2.08] | 10 to 40
9 | COCCNCc1sc(C(=O)NCc2ccc3c(N)nccc3c2)cc1Cl [Example 2.09] | 10 to 40
10 | Nc1nccc2cc(CNC(=O)c3cc(Cl)c(CNCC4CCOCC4)s3)ccc12 [Example 2.10] | 10 to 40
11 | CS(=O)(=O)c1ccc(CNCc2sc(C(=O)NCc3ccc4c(N)nccc4c3)cc2Cl)cc1 [Example 2.11, N-[(1-Aminoisoquinolin-6-yl)methyl]-4-chloro-5-({[(4-methanesulfonylphenyl)methyl]amino}methyl)thiophene-2-carboxamide] | 3 to 10
12 | CS(=O)(=O)c1cccc(CNCc2sc(C(=O)NCc3ccc4c(N)nccc4c3)cc2Cl)c1 [Example 2.12] | 3 to 10
13 | CS(=O)(=O)c1ccccc1CNCc1sc(C(=O)NCc2ccc3c(N)nccc3c2)cc1Cl [Example 2.13] | 10 to 40
14 | N#Cc1cccc(CNCc2sc(C(=O)NCc3ccc4c(N)nccc4c3)cc2Cl)c1 [Example 2.15] | 10 to 40
15 | CN(C)CCNCc1sc(C(=O)NCc2ccc3c(N)nccc3c2)cc1Cl [Example 2.16] | 3 to 10
16 | Nc1nccc2cc(CNC(=O)c3cc(Cl)c(CNC4CCOCC4)s3)ccc12 [Example 2.17] | 10 to 40
17 | Nc1nccc2cc(CNC(=O)c3cc(Cl)c(CNCCN4CCOCC4)s3)ccc12 [Example 2.18] | 10 to 40
18 | CN1CCN(CCNCc2sc(C(=O)NCc3ccc4c(N)nccc4c3)cc2Cl)CC1 [Example 2.19] | 3 to 10
19 | CN1CCC(CNCc2sc(C(=O)NCc3ccc4c(N)nccc4c3)cc2Cl)CC1 [Example 2.20] | 3 to 10
20 | Nc1nccc2cc(CNC(=O)c3cc(Cl)c(CNCCOc4ccccc4)s3)ccc12 [Example 2.21] | 10 to 40

Row | SMILES | IC50 [µM]
21 | Nc1nccc2cc(CNC(=O)c3cc(Cl)c(CNCCCOc4ccccc4)s3)ccc12 [Example 2.22] | 10 to 40
22 | Nc1nccc2cc(CNC(=O)c3cc(Cl)c(CNCCn4ccnc4)s3)ccc12 [Example 2.23] | 10 to 40
23 | CC(=O)N1CCN(CCNCc2sc(C(=O)NCc3ccc4c(N)nccc4c3)cc2Cl)CC1 [Example 2.24] | 10 to 40
24 | Nc1nccc2cc(CNC(=O)c3cc(Cl)c(CNCCN4CCS(=O)(=O)CC4)s3)ccc12 [Example 2.25] | 10 to 40
25 | CC(C)CCNCc1sc(C(=O)NCc2ccc3c(N)nccc3c2)cc1Cl [Example 2.26] | 10 to 40
26 | CC(=O)NCCNCc1sc(C(=O)NCc2ccc3c(N)nccc3c2)cc1Cl [Example 2.27] | 10 to 40
27 | Nc1nccc2cc(CNC(=O)c3cc(Cl)c(CNCc4ccc5c(c4)OCO5)s3)ccc12 [Example 2.28] | 10 to 40
28 | CN1CCCc2cc(CNCc3sc(C(=O)NCc4ccc5c(N)nccc5c4)cc3Cl)ccc21 [Example 2.29] | 10 to 40
29 | Nc1nccc2cc(CNC(=O)c3cc(Cl)c(CNCc4ccccn4)s3)ccc12 [Example 2.30] | 10 to 40
30 | Nc1nccc2cc(CNC(=O)c3cc(Cl)c(CNCc4ccncc4)s3)ccc12 [Example 2.31] | 3 to 10
31 | Nc1nccc2cc(CNC(=O)c3cc(Cl)c(CNCc4cccnc4)s3)ccc12 [Example 2.32] | 3 to 10
32 | CN(C)CCCNCc1sc(C(=O)NCc2ccc3c(N)nccc3c2)cc1Cl [Example 2.33] | 3 to 10
33 | CC(C)N1CCN(CCCNCc2sc(C(=O)NCc3ccc4c(N)nccc4c3)cc2Cl)CC1 [Example 2.34] | 3 to 10
34 | CN(C)CCOc1ccc(CNCc2sc(C(=O)NCc3ccc4c(N)nccc4c3)cc2Cl)cc1 [Example 2.35] | 3 to 10
35 | CN1CCN(CCCNCc2sc(C(=O)NCc3ccc4c(N)nccc4c3)cc2Cl)CC1 [Example 2.37] | 3 to 10
36 | Nc1nccc2cc(CNC(=O)c3cc(Cl)c(CNCCN4CCCC4=O)s3)ccc12 [Example 2.38] | 10 to 40
37 | CN1CCN(c2ccccc2CNCc2sc(C(=O)NCc3ccc4c(N)nccc4c3)cc2Cl)CC1 [Example 2.39] | 10 to 40
38 | Nc1nccc2cc(CNC(=O)c3cc(Cl)c(CNCC4CCN(Cc5ccccc5)CC4)s3)ccc12 [Example 2.40] | 3 to 10
39 | Nc1nccc2cc(CNC(=O)c3cc(Cl)c(CNCc4ccc(N5CCCCC5=O)cc4)s3)ccc12 [Example 2.41] | 10 to 40
40 | Nc1nccc2cc(CNC(=O)c3cc(Cl)c(CNCc4cccc(N5CCCC5=O)c4)s3)ccc12 [Example 2.42] | 10 to 40

Row | SMILES | IC50 [µM]
41 | Nc1nccc2cc(CNC(=O)c3cc(Cl)c(CNCC(=O)NC4CCCC4)s3)ccc12 [Example 2.43] | 10 to 40
42 | CN(Cc1sc(C(=O)NCc2ccc3c(N)nccc3c2)cc1Cl)CC1CCN(c2ccncc2)CC1 [Example 2.44] | 3 to 10
43 | CN(C)CCCOc1cccc(CN(C)Cc2sc(C(=O)NCc3ccc4c(N)nccc4c3)cc2Cl)c1 [Example 2.45] | 3 to 10
44 | CN(Cc1sc(C(=O)NCc2ccc3c(N)nccc3c2)cc1Cl)C1CCOCC1 [Example 2.46] | 10 to 40
45 | CN1CCC(N(C)Cc2sc(C(=O)NCc3ccc4c(N)nccc4c3)cc2Cl)CC1 [Example 2.47] | 10 to 40
46 | COc1ccc(NCc2sc(C(=O)NCc3ccc4c(N)nccc4c3)cc2Cl)cc1 [Example 2.48] | 10 to 40
47 | CS(=O)(=O)c1ccc(NCc2sc(C(=O)NCc3ccc4c(N)nccc4c3)cc2Cl)cc1 [Example 2.49] | 3 to 10
48 | N#Cc1ccc(CNCc2sc(C(=O)NCc3ccc4c(N)nccc4c3)cc2Cl)cc1 [Example 2.50] | 10 to 40
49 | CC(=O)NCCCNCc1sc(C(=O)NCc2ccc3c(N)nccc3c2)cc1Cl [Example 2.51] | 10 to 40
50 | CN(C)CCCOc1cccc(CNCc2sc(C(=O)NCc3ccc4c(N)nccc4c3)cc2Cl)c1 [Example 2.52] | 3 to 10
51 | CN1C(C)(C)CC(NCc2sc(C(=O)NCc3ccc4c(N)nccc4c3)cc2Cl)CC1(C)C [Example 2.53] | 3 to 10
52 | Nc1nccc2cc(CNC(=O)c3cc(Cl)c(CNCCn4cncn4)s3)ccc12 [Example 2.54] | 3 to 10
53 | CC(=O)Nc1cccc(NCc2sc(C(=O)NCc3ccc4c(N)nccc4c3)cc2Cl)c1 [Example 2.55] | 10 to 40
54 | CC(C)N(CCNCc1sc(C(=O)NCc2ccc3c(N)nccc3c2)cc1Cl)C(C)C [Example 2.56] | 3 to 10
55 | Nc1nccc2cc(CNC(=O)c3cc(Cl)c(CNCc4ccc(CN5CCCC5=O)cc4)s3)ccc12 [Example 2.57] | 3 to 10
56 | Nc1nccc2cc(CNC(=O)c3cc(Cl)c(CN4CCN(Cc5cccnc5)CC4)s3)ccc12 [Example 5.01] | 10 to 40
57 | CN1CCCN(Cc2sc(C(=O)NCc3ccc4c(N)nccc4c3)cc2Cl)CC1 [Example 5.02] | 3 to 10
58 | Nc1nccc2cc(CNC(=O)c3cc(Cl)c(CN4CCOCC4)s3)ccc12 [Example 5.03] | 10 to 40
